Patent EP2818472A1, “Imidazo[4,5-c]pyridine and pyrrolo[3,2-c]pyridine compounds as G-protein-coupled receptor kinase 5 (GRK5) modulators” (Max-Planck-Gesellschaft zur Förderung der Wissenschaften …, priority 2013, dated 2014)

Test system: beta-TC6 cells
Test: Insulin HTRF assay (relative activity Ar) in beta-TC6 cells
Format: cell-based, mouse
Settings: Mus musculus, Beta-TC6, 4 h, insulin HTRF, supernatant of beta-TC6 cells, incubation with test compound at 37°C for 2, 3, 4h; read-out: Ar (relative activity)
Summary of the method: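 beta-TC6 cells (15k/well, seeded 24 or 48 h) washed, then exposed to compound in induction buffer (0.5% DMSO final) for 2, 3 or 4 h at 37°C.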

CCN(CC)CCNC(=O)c1ccc(Nc2nccc3[nH]c(-c4ccncc4)nc23)cc1 [Compound 425, N-(2-diethylaminoethyl)-4-[[2-(4-pyridyl)-1H-imidazo[4,5-c]pyridin-4-yl]amino]benzamide] and COc1ccc(Nc2nccc3[nH]c(-c4ccncc4)nc23)cc1 [Compound 427, N-(4-methoxyphenyl)-2-(4-pyridyl)-1H-imidazo[4,5-c]pyridin-4-amine] fall in the same range of Emax: 50 to 100% for the first, 50 to 100% for the second.

CN(C)c1cccc(Nc2nccc3[nH]c(-c4ccncc4)nc23)c1 [Compound 426, N1,N1-dimethyl-N3-[2-(4-pyridyl)-1H-imidazo[4,5-c]pyridin-4-yl]benzene-1,3-diamine] and Oc1cccc(Nc2nccc3[nH]c(-c4ccncc4)nc23)c1 [Compound 431, 3-[[2-(4-pyridyl)-1H-imidazo[4,5-c]pyridin-4-yl]amino]phenol] fall in the same range of Emax: 50 to 100% for the first, 50 to 100% for the second.

c1ccc(CNc2nccc3[nH]c(-c4ccncc4)nc23)cc1 [Compound 428, N-benzyl-2-(4-pyridyl)-1H-imidazo[4,5-c]pyridin-4-amine] and c1ccc(CCNc2nccc3[nH]c(-c4ccncc4)nc23)cc1 [Compound 434, N-phenethyl-2-(4-pyridyl)-1H-imidazo[4,5-c]pyridin-4-amine] fall in the same range of Emax: 30 to 50% for the first, 30 to 50% for the second.

Compared with CC(C)[C@H](CO)Nc1nccc2[nH]c(-c3ccncc3)nc12 [Compound 429, (2R)-3-methyl-2-[[2-(4-pyridyl)-1H-imidazo[4,5-c]pyridin-4-yl]amino]butan-1-ol], COc1ccc(Nc2nccc3[nH]c(-c4ccncc4)nc23)cc1O [Compound 432, 2-methoxy-5-[[2-(4-pyridyl)-1H-imidazo[4,5-c]pyridin-4-yl]amino]phenol] is higher in Emax: 0 to 30% for the first, over 100% for the second.

First: CN(C)c1ccc(CNc2nccc3[nH]c(-c4ccncc4)nc23)cc1 [Compound 430, N-[(4-dimethylaminophenyl)methyl]-2-(4-pyridyl)-1H-imidazo[4,5-c]pyridin-4-amine]
Second: Clc1ccc(CNc2nccc3[nH]c(-c4ccncc4)nc23)cc1 [Compound 433, N-[(4-chlorophenyl)methyl]-2-(4-pyridyl)-1H-imidazo[4,5-c]pyridin-4-amine]
The Emax of the first is higher: 50 to 100% for the first, 30 to 50% for the second.

COc1cc(Nc2nccc3[nH]c(-c4cccc(C)c4)nc23)cc(OC)c1OC [Compound 435, 2-(m-tolyl)-N-(3,4,5-trimethoxyphenyl)-1H-imidazo[4,5-c]pyridin-4-amine] and COc1ccc(Nc2nccc3[nH]c(-c4cccc(C)c4)nc23)cc1OC [Compound 436, N-(3,4-dimethoxyphenyl)-2-(m-tolyl)-1H-imidazo[4,5-c]pyridin-4-amine] fall in the same range of Emax: 50 to 100% for the first, 50 to 100% for the second.

Cc1cccc(-c2nc3c(NCCc4ccccn4)nccc3[nH]2)c1 [Compound 437, 2-(m-tolyl)-N-[2-(2-pyridyl)ethyl]-1H-imidazo[4,5-c]pyridin-4-amine] and FC(F)(F)Oc1cccc(-c2nc3c(NCc4ccccn4)nccc3[nH]2)c1 [Compound 445, N-(2-pyridylmethyl)-2-[3-(trifluoromethoxy)phenyl]-1H-imidazo[4,5-c]pyridin-4-amine] fall in the same range of Emax: 30 to 50% for the first, 30 to 50% for the second.

Cc1cccc(-c2nc3c(Nc4cccc(O)c4)nccc3[nH]2)c1 [Compound 438, 3-[[2-(m-tolyl)-1H-imidazo[4,5-c]pyridin-4-yl]amino]phenol] and Cc1cccc(-c2nc3c(Nc4cccc(NS(C)(=O)=O)c4)nccc3[nH]2)c1 [Compound 439, N-[3-[[2-(m-tolyl)-1H-imidazo[4,5-c]pyridin-4-yl]amino]phenyl]methanesulfonamide] fall in the same range of Emax: 30 to 50% for the first, 30 to 50% for the second.

First: COc1ccc(Nc2nccc3[nH]c(-c4ccc(F)c(F)c4)nc23)cc1OC [Compound 440, 2-(3,4-difluorophenyl)-N-(3,4-dimethoxyphenyl)-1H-imidazo[4,5-c]pyridin-4-amine]
Second: COc1ccc(Nc2nccc3[nH]c(-c4cccc(OC)c4F)nc23)cc1OC [Compound 469, N-(3,4-dimethoxyphenyl)-2-(2-fluoro-3-methoxy-phenyl)-1H-imidazo[4,5-c]pyridin-4-amine]
The Emax of the first is lower: 30 to 50% for the first, over 100% for the second.

Oc1cccc(Nc2nccc3[nH]c(-c4ccc(F)c(F)c4)nc23)c1 [Compound 441, 3-[[2-(3,4-difluorophenyl)-1H-imidazo[4,5-c]pyridin-4-yl]amino]phenol] and COc1ccc(Nc2nccc3[nH]c(-c4cccc(OC(F)(F)F)c4)nc23)cc1O [Compound 444, 2-methoxy-5-[[2-[3-(trifluoromethoxy)phenyl]-1H-imidazo[4,5-c]pyridin-4-yl]amino]phenol] fall in the same range of Emax: 30 to 50% for the first, 30 to 50% for the second.

CN1CCN(c2nccc3[nH]c(-c4cccc(OC(F)(F)F)c4)nc23)CC1 [Compound 442, 4-(4-methylpiperazin-1-yl)-2-[3-(trifluoromethoxy)phenyl]-1H-imidazo[4,5-c]pyridine] and FC(F)(F)Oc1cccc(-c2nc3c(N4CCOCC4)nccc3[nH]2)c1 [Compound 446, 4-[2-[3-(trifluoromethoxy)phenyl]-1H-imidazo[4,5-c]pyridin-4-yl]morpholine] fall in the same range of Emax: 30 to 50% for the first, 30 to 50% for the second.

First: OC1CCC(Nc2nccc3[nH]c(-c4cccc(OC(F)(F)F)c4)nc23)CC1 (stereo not drawn) [Compound 443, 4-[[2-[3-(trifluoromethoxy)phenyl]-1H-imidazo[4,5-c]pyridin-4-yl]amino]cyclohexanol]
Second: FC(F)(F)c1cccc(Nc2nccc3[nH]c(-c4ccccc4Cl)nc23)c1 [Compound 462, 2-(2-chlorophenyl)-N-[3-(trifluoromethyl)phenyl]-1H-imidazo[4,5-c]pyridin-4-amine]
The Emax of the first is higher: 30 to 50% for the first, 0 to 30% for the second.

First: COc1ccc(Nc2nccc3c2ncn3C)cc1OC [Compound 447, N-(3,4-dimethoxyphenyl)-1-methyl-imidazo[4,5-c]pyridin-4-amine]
Second: CN(C)c1cccc(Nc2nccc3c2ncn3C)c1 [Compound 450, N1,N1-dimethyl-N3-(1-methylimidazo[4,5-c]pyridin-4-yl)benzene-1,3-diamine]
The Emax of the first is higher: 50 to 100% for the first, 30 to 50% for the second.

First: Cn1cnc2c(Nc3ccc4[nH]ccc4c3)nccc21 [Compound 448, N-(1H-indol-5-yl)-1-methyl-imidazo[4,5-c]pyridin-4-amine]
Second: COc1cccc(Nc2nccc3[nH]c(-c4ccco4)nc23)c1 [Compound 464, 2-(2-furyl)-N-(3-methoxyphenyl)-1H-imidazo[4,5-c]pyridin-4-amine]
The Emax of the first is higher: 50 to 100% for the first, 30 to 50% for the second.

Compared with c1ccc(Cn2cnc3c(NC4CCCCC4)nccc32)cc1 [Compound 449, 1-benzyl-N-cyclohexyl-imidazo[4,5-c]pyridin-4-amine], c1ccc(Cn2cnc3c(NCc4ccco4)nccc32)cc1 [Compound 451, 1-benzyl-N-(2-furylmethyl)imidazo[4,5-c]pyridin-4-amine] is lower in Emax: 50 to 100% for the first, 0 to 30% for the second.

First: c1ccc(Cn2cnc3c(NCc4cccs4)nccc32)cc1 [Compound 452, 1-benzyl-N-(2-thienylmethyl)imidazo[4,5-c]pyridin-4-amine]
Second: COc1ccc(CNc2nccc3c2ncn3Cc2ccccc2)cc1 [Compound 455, 1-benzyl-N-[(4-methoxyphenyl)methyl]imidazo[4,5-c]pyridin-4-amine]
The Emax of the first is higher: 30 to 50% for the first, 0 to 30% for the second.

First: c1ccc(Cn2cnc3c(NCc4ccc5c(c4)OCO5)nccc32)cc1 [Compound 454, N-(1,3-benzodioxol-5-ylmethyl)-1-benzyl-imidazo[4,5-c]pyridin-4-amine]
Second: CC(C)c1ccc(Nc2nccc3c2ncn3Cc2ccccc2)cc1 [Compound 457, 1-benzyl-N-(4-isopropylphenyl)imidazo[4,5-c]pyridin-4-amine]
The Emax of the first is higher: 50 to 100% for the first, 30 to 50% for the second.

First: COc1ccc(Nc2nccc3[nH]c(-c4ccccc4Cl)nc23)cc1OC [Compound 458, 2-(2-chlorophenyl)-N-(3,4-dimethoxyphenyl)-1H-imidazo[4,5-c]pyridin-4-amine]
Second: Fc1ccc(Nc2nccc3[nH]c(-c4ccccc4Cl)nc23)cc1Cl [Compound 461, N-(3-chloro-4-fluoro-phenyl)-2-(2-chlorophenyl)-1H-imidazo[4,5-c]pyridin-4-amine]
The Emax of the first is higher: 50 to 100% for the first, 0 to 30% for the second.

First: Clc1ccccc1-c1nc2c(NCCc3ccncc3)nccc2[nH]1 [Compound 459, 2-(2-chlorophenyl)-N-[2-(4-pyridyl)ethyl]-1H-imidazo[4,5-c]pyridin-4-amine]
Second: CS(=O)(=O)Nc1cccc(Nc2nccc3[nH]c(-c4ccccc4Cl)nc23)c1 [Compound 463, N-[3-[[2-(2-chlorophenyl)-1H-imidazo[4,5-c]pyridin-4-yl]amino]phenyl]methanesulfonamide]
The Emax of the first is lower: 0 to 30% for the first, 30 to 50% for the second.

Compared with COc1cc(CNc2nccc3[nH]c(-c4ccccc4Cl)nc23)cc(OC)c1OC [Compound 460, 2-(2-chlorophenyl)-N-[(3,4,5-trimethoxyphenyl)methyl]-1H-imidazo[4,5-c]pyridin-4-amine], COc1cccc(-c2nc3c(Nc4cc(OC)c(OC)c(OC)c4)nccc3[nH]2)c1F [Compound 467, 2-(2-fluoro-3-methoxy-phenyl)-N-(3,4,5-trimethoxyphenyl)-1H-imidazo[4,5-c]pyridin-4-amine] is higher in Emax: 0 to 30% for the first, over 100% for the second.

First: c1cncc(Nc2nccc3[nH]c(-c4ccco4)nc23)c1 [Compound 465, 2-(2-furyl)-N-(3-pyridyl)-1H-imidazo[4,5-c]pyridin-4-amine]
Second: COc1ccc(Nc2nccc3[nH]c(-c4ccco4)nc23)cc1 [Compound 466, 2-(2-furyl)-N-(4-methoxyphenyl)-1H-imidazo[4,5-c]pyridin-4-amine]
The Emax of the first is lower: 0 to 30% for the first, 50 to 100% for the second.

COc1cccc(Nc2nccc3[nH]c(-c4cccc(OC)c4F)nc23)c1 [Compound 468, 2-(2-fluoro-3-methoxy-phenyl)-N-(3-methoxyphenyl)-1H-imidazo[4,5-c]pyridin-4-amine] and COc1ccc(Nc2nccc3[nH]c(-c4cccc(OC)c4F)nc23)cn1 [Compound 470, 2-(2-fluoro-3-methoxy-phenyl)-N-(6-methoxy-3-pyridyl)-1H-imidazo[4,5-c]pyridin-4-amine] fall in the same range of Emax: 30 to 50% for the first, 30 to 50% for the second.

COc1cccc(-c2nc3c(Nc4ccc(Cl)cc4)nccc3[nH]2)c1F [Compound 471, N-(4-chlorophenyl)-2-(2-fluoro-3-methoxy-phenyl)-1H-imidazo[4,5-c]pyridin-4-amine] was tested, and the Emax was 0 to 30%.
